Legend:
[1] = 20 mg/kg oral
Experimental: Blood was drawn from branchial vein of dogs, vein of ear of rabbits and carotic artery of rats after slaughter. Urine was collected with urine bladder catheter for rabbits and metabolic cages for rats. Gathering bile was performed with biliary duct cannulation without anesthesia.

[2] = system: serotonin in Brain; settings: in vivo; cited from earlier work
[3] = system: rats; assay: Sub-acute toxicity: histopathological examination; format: in vivo, rat (SD (SPF)); settings: for Adrenal Hypertrophy: 5 rats
Text: Rats were sacrificed under anesthesia with ether.
Five samples were randomly selected from each group, and paraffin-sectionedpreparations of the organs were made by a routine method. The preparations were stained with hematoxyline-eosin stain and Luxol-fast blue (central nervous system only) and examined histopathologically.

[4] = Change of MR content in blood (serum level); format: in vivo, dogs, rabbits and rats
Experimental: In case of oral administration, the animals were not permitted to eat for 24 hours, except for the experiment of biotransformation.

[5] = Effect on body temperature; format: in vivo, mouse (dd-strain); settings: 25 mg/kg oral
[6] = system: central nervous system; settings: in vivo; cited from earlier work

COC(=O)[C@H]1[C@H]2C[C@@H]3c4[nH]c5cc(OC)ccc5c4CCN3C[C@H]2C[C@@H](O)[C@@H]1OC [MR, methylreserpate]
Area under the Curve of MR Content in Serum [1]: 63.6 | serotonin in Brain [2]: no decrease of serotonin in Brain | Adrenal Hypertrophy ([3]; 25.0 mg/kg): - - - + - | Adrenal Hypertrophy ([3]; 50.0 mg/kg): + + ++ + + | Adrenal Hypertrophy ([3]; 100.0 mg/kg): + + + + + | Lung Alveolar wall Congestion ([3]; 200.0 mg/kg, 5 dead rats): + ++ ++ ++ +++ | Lung Alveolar wall Pneumonia ([3]; 200.0 mg/kg, 5 dead rats): ++ ++ ++ + + | Lung Alveolus Pneumonia ([3]; 200.0 mg/kg, 5 dead rats): - - - - - | Lung Bronchus Bronchitis ([3]; 200.0 mg/kg, 5 dead rats): - - - - - | Pancreas ([3]; 200.0 mg/kg, 5 dead rats): - - - - - | Prostate ([3]; 200.0 mg/kg, 5 dead rats): - - - - / | Salivary Mucous gl. ([3]; 200.0 mg/kg, 5 dead rats): - - - - - | Salivary Serous gl. Atrophy ([3]; 200.0 mg/kg, 5 dead rats): - - - - - | Spleen Atrophy ([3]; 200.0 mg/kg, 5 dead rats): - - - - - | Spleen Congestion ([3]; 200.0 mg/kg, 5 dead rats): ++ ++ ++ + + | Spleen Haemosiderosis ([3]; 200.0 mg/kg, 5 dead rats): + + + + + | Stomach ([3]; 200.0 mg/kg, 5 dead rats): - - - - - | Testis ([3]; 200.0 mg/kg, 5 dead rats): - - - - - | Thyroid ([3]; 200.0 mg/kg, 5 dead rats): / - - - / | Thyroid Atrophy ([3]; 200.0 mg/kg, 5 dead rats): +++ / +++ / / | Urine bladder ([3]; 200.0 mg/kg, 5 dead rats): - - - - - | Bone marrow Hypoplasia ([3]; rat, in vivo): - - - - - | Central nerve ([3]; rat, in vivo): - - - - - | Heart Endocardium ([3]; rat, in vivo): - - - - - | Heart Epicardium ([3]; rat, in vivo): - - - - - | Heart Myocardium Focal collapse ([3]; rat, in vivo): + - - + - | Heart finding ([3]; rat, in vivo): focal collapse of heart muscles | Hypophysis ([3]; rat, in vivo): - - - - - | Intestine ([3]; rat, in vivo): - - - - - | Kidney ([3]; rat, in vivo): - - - - - | Liver Glisson's capsule Cell inf. ([3]; rat, in vivo): - + + + + | Liver Kupffer cell Swelling ([3]; rat, in vivo): - - + + - | Liver cell Degeneration ([3]; rat, in vivo): - - - - - | Liver cell cord Cell inf. ([3]; rat, in vivo): - - + - - | Liver cell cord Congestion ([3]; rat, in vivo): - - - - - | Liver: Glisson's capsule or liver cell cords; Kupffer cells ([3]; rat, in vivo): lymphocytic cell infiltration in Glisson's capsule or liver cell cords, and swelling of Kupffer cells | Lung Alveolar wall Congestion ([3]; rat, in vivo): - - - - - | Lung Alveolar wall Pneumonia ([3]; rat, in vivo): - - - - - | Lung Alveolus Pneumonia ([3]; rat, in vivo): - + - - - | Lung Bronchus Bronchitis ([3]; rat, in vivo): - - - - + | Lymph node ([3]; rat, in vivo): - - - - - | Pancreas ([3]; rat, in vivo): - - - - - | Prostate ([3]; rat, in vivo): - - - - - | Salivary Mucous gl. ([3]; rat, in vivo): - - - - - | Salivary Serous gl. Atrophy ([3]; rat, in vivo): - - - - - | Spleen Atrophy ([3]; rat, in vivo): - - - - - | Spleen Congestion ([3]; rat, in vivo): - - - - - | Spleen Haemosiderosis ([3]; rat, in vivo): + + + + + | Stomach ([3]; rat, in vivo): - - - - - | Testis ([3]; rat, in vivo): - - - - - | Thymus Atrophy ([3]; rat, in vivo): - - - - - | Thyroid ([3]; rat, in vivo): - - - - - | Urine bladder ([3]; rat, in vivo): - - - - - | kidney histopathology ([3]; rat, in vivo): no pathological change | other organs ([3]; rat, in vivo): No other pathological change | pathological change of adrenal ([3]; rat, in vivo): reversible hypertrophy of cortex | stomach mucous ([3]; rat, in vivo): no pathological change of stomach mucous | absorption in the digestive tract ([4]; in vivo): readily absorbed | correlation of serum level pattern with pattern of blood pressure decrease ([4]; in vivo): high corralation | absorption from digestive tracts compared with RSP and RCN ([4]; oral): more readily absorbed | Tmax ([4]; serum, po, 10 mg/kg, after administration, read-out: time of maximum serum level): 1 to 2 h | body temperature (rectal) ([5]; 1 hour after): 36.6±0.2 °C | body temperature (rectal) ([5]; 2 hours after): 36.2± 0.2 °C | body temperature (rectal) ([5]; 3 hours after): 35.6±0.1 °C | effect on body temperature ([5]; 3 hours after): a slight decrease in the temperature | inhibitory action of central nervous system [6]: less than that of RSP

Reference: patent publication US4238491A (priority 1977, dated 1980)
